Experimental data published in patent publication US6407137B2, “Dopamine analog amide” (Protarga, Inc., priority 1988, dated 2002).
Where “and” joins values, the source holds several entries; their conditions need not be identical. Equal entries are not always repeated. Entries after “also recorded” stand apart in the source; their conditions may differ.

Assays:
[1] = Pattern of distribution of 14C-labeled 8739 in membranes of the central nervous system (P1/P2 fractions); assay type: in vivo, mice
Protocol: The fraction P1 containing nuclear and cell membrane components was sedimented for 5 min at 2,500 rpm at 0° C. The supernatant containing the crude synaptosomal fraction was next centrifuged at 13,000 rpm for 30 min to yield a pellet containing the crude synaptosomal fraction (P2). P1 and P2 were then dissolved in BPS, and the amount of label and protein in each fraction was determined.

[2] = Open-field motor activity measurement; assay type: in vivo, balb-c mice
Protocol: The effect of compound 8739 on general motor activity was determined. The general motor activity of balb-c mice was measured in a Stoelting electronic activity monitor apparatus during a 90-min period following an intraperitoneal injection of the compound as a solution in 15% propylene glycol in 0.1 M NaHCO3. A detailed description of the apparatus is reported in Stewart R. J., Campbell A., Spark G. and Balessarini R. J. Psychopharmacol. 60, 281 (1979).
The test group (six mice) received an i.p. injection of the drug in a vehicle (15% propylene glycol in 0.1 M NaHCO3, a total volume of between about […].). The six control mice received the same volume of vehicle, but no drug. The results (Shown in FIG. 1,) are expressed as the percent decrease in open field activity for the test group versus the control group. […] The response was dose dependant with higher doses of compound 8739 resulting in a greater decrease in general motor activity.
The effects of the mode of delivery of Compound 8739 (oral vs. i.p.) on the general open-field activity of mice (n=6) was assessed. […] A 40-50% decrease in activity occurred when either delivery method was employed.

[3] = Food consumption measurements; assay type: in vivo, balb-c mice; conditions: oral administration, same experiment
Protocol: The effect of compound 8739 on food consumption was determined for balb-c mice that were food deprived for 24 hr, with water freely available. The six test mice were given an i.p. injection of compound 8739 as a solution in 15% propylene glycol in 0.1 M NaHCO3, a total volume of between about 0.1-0.3 ml. The six control mice received the same volume of vehicle, but no drug. The quantity of “mouse chow” eaten during the 60-min period following the injections was determined. The results, also shown in FIG. 1, are expressed as the percent decrease in food consumption for the test group versus the control group. […] The decrease was dose dependent, with higher doses of compound 8739 causing greater decrease in food intake. The same experiment was conducted using oral administration of compound 8739.

[4] = Test for tolerance: open field activity during daily injections; assay type: in vivo, mice; conditions: 20 mg/kg i.p. daily for 21 days
Protocol: The effects of daily i.p. injections of compound 8739 at a dose of 20 mg/kg on open field activity and food consumption was tested to determine whether tolerance to the drug was induced over time. The open field activity of six test mice and six control mice was monitored for five days. Then, the test mice were given i.p. injections of the drug in a vehicle and the control mice were given i.p. injections of the vehicle only. This regimen was carried out for a 21 day test period. At the end of the 21 days, the vehicle alone was given daily to both test and control mice and open field activity and food consumption was monitored for an additional six days.
FIG. 3 plots the percent decrease in open field activity of the test mice (n=6) as compared to the controls (n=6). […] Upon initation of injections, there was a 30% to 60% decrease in open field activity. […] Beginning at day 22 and daily until day 27, vehicle alone was given to both groups.

[5] = Test for tolerance: food consumption during long-term administration; assay type: in vivo, mice; conditions: 20 mg/kg i.p. daily for 21 days, food intake
Protocol: The effect of long-term administration of compound 8739 on the pattern of food consumption of mice was compared to the long-term effects of the administration of amphetamine. Daily i.p. injections of compound 8739 (20 mg/kg) were given to test animals and daily i.p. injections of amphetamine (2 mg/kg) were given to control animals for 21 days. 24 hours after the first injection and about every five days after that, the animals were food-deprived for 24 hours with water freely available, and then were tested for food consumption for one-hour beginning at five minutes after receiving their daily injection.
FIG. 4 plots the percent decrease in food consumption versus time.

D-1 dopamine receptors = assay: Dopamine receptor binding assay (D-1)
Chain of D-1 dopamine receptors (P21728 whole entry): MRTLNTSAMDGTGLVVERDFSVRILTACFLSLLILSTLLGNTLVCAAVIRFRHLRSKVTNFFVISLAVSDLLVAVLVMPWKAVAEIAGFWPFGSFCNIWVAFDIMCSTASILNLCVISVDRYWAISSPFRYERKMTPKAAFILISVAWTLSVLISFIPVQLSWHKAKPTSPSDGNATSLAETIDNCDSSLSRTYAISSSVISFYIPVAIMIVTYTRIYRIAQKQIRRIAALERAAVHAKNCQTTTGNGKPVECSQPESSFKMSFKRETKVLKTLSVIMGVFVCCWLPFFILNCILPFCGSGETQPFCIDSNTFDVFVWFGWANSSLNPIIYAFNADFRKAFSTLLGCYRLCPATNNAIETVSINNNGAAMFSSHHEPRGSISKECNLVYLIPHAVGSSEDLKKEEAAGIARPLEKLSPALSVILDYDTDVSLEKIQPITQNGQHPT

D-2 dopamine receptors = D-2 dopamine receptors (Homo sapiens, UniProt P14416); assay: Dopamine receptor binding assay (D-2)
Chain of D-2 dopamine receptors (P14416 whole entry): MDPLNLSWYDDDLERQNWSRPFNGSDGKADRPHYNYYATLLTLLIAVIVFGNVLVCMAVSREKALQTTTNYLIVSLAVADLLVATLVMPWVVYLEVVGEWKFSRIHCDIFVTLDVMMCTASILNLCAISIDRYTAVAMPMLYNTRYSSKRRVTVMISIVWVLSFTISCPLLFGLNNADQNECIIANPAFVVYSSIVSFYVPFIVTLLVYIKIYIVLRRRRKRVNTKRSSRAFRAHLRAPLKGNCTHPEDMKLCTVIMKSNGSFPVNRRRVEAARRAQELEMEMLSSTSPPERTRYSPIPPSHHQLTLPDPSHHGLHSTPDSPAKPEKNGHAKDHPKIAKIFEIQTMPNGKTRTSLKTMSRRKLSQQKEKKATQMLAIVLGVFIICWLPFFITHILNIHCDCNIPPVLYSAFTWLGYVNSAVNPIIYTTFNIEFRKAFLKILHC

Swelling of the brain = assay: Swelling of the brain
Excerpt: Another favorable property of compound 8739 was unexpected. […] Chan, P. H., Fishman, R. A., SCIENCE, Vol. 20, 358-360 (1978).

[6] = in vivo
Excerpt: Many of the undesirable side effects of amphetamines were absent. […] Failure to induce tolerance was unexpected.

[7] = 14C-labeled 8739 s.c., mice, brain, 30 min

CC/C=C\C/C=C\C/C=C\C/C=C\C/C=C\C/C=C\CCC(=O)NCCc1ccc(O)c(O)c1 [Compound 8739]
P1 (Nuclear and Cell Membrane Fraction), CPM/mg Protein after 30 min of Uptake [1, 7]: 4.19 CPM/mg Protein and 2.7 CPM/mg Protein | P2/P1 [1, 7]: 2.9 and 1.9 and 2.1 | factor by which uptake into P2 was greater than into P1, average ([1]; average of the experiments of Table II): 2.3 | percent decrease in open field activity, test group versus control group ([2]; i.p. injection, mice, 90-min period): 40-50% | decrease in open-field activity ([2]; oral delivery, mice n=6): 40-50% | activity when given orally compared with injection ([2]; oral vs. i.p.): as active when ingested as when injected; also recorded: without any apparent loss in efficacy | food consumption, oral administration compared with i.p. [3]: The results were the same | tolerance [4]: no indication of tolerance | tolerance ([4]; listed as compound 8739): no tolerance was induced | tolerance [5]: no tolerance had developed | binding to D-1 dopamine receptors (D-1 dopamine receptors): does not bind | binding to D-2 dopamine receptors (D-2 dopamine receptors): does not bind | swelling of the brain (Swelling of the brain): did not induce any swelling | effects on motor function or motivation [6]: failed to demonstrate any diverse effects | stereotypy [6]: failed to induce
